Source: patent US20260232625A1, “NOVEL DECURSIN DERIVATIVE AND USE THEREOF FOR PREVENTING OR TREATING NON-SMALL CELL LUNG CANCER” (JAEIN R&P INC., priority 2023, published 2026)
pIC50: −log10 of the molar value.

Tested on: A549
Test: MTT cytotoxicity evaluation against A549 cells
Assay type: cell-based, human
Conditions: Homo sapiens, A549, 48 h, 48 hours
Description: A549 (human lung cancer cells) were obtained from the American Type Culture Collection (ATCC) and used. The cells were cultured in a medium containing 10% FBS, 1% penicillin (10,000 units/mL), and streptomycin (10 mg/mL), or in Dulbecco's Modified Eagle's Medium (DMEM), at 37° C. under 5% CO2 conditions.
To measure cytotoxicity, an MTT assay was used. Specifically, A549 cells cultured according to Experimental Example 1 were seeded into a 96-well plate at a density of 2.5×10^4 cells/mL in 100 μL, and incubated for 24 hours. Thereafter, the cells were treated with either the compounds prepared according to Examples 1 to 27 or, as comparative agents, decursin or docetaxel. The prepared compounds and decursin were each administered to the A549 cell line at concentrations of 0 μM (untreated), 12.5 μM, 25 μM, 50 μM, 100 μM, and 200 μM, while docetaxel was administered at concentrations of 0 nM (untreated), 0.1 nM, 1 nM, 10 nM, 100 nM, and 1,000 nM, followed by incubation for an additional 48 hours. Then, 20 μL of MTT solution was added (Method 1). Alternatively, the compounds prepared according to Examples 28 to 30, the compound of Example 5 as a reference compound or, as comparative agents, decursin or docetaxel, were used. The prepared compounds, the compound of Example 5, and decursin were each administered at concentrations of 0 μM (untreated), 3.125 μM, 6.25 μM, 12.5 μM, 25 μM, and 50 μM, while docetaxel was administered at concentrations of 0 nM (untreated), 0.6 nM, 1.25 nM, 2.5 nM, 5 nM, and 10 nM, and treated in the same manner as described in Method 1 (Method 2). The cells treated with MTT solution were incubated for 2 hours, the medium was removed, and the formazan blue crystals formed by the cells were treated with an MTT lysis buffer, followed by incubation in a cell incubator for 24 hours. The MTT lysis buffer was prepared by mixing N,N-dimethylformamide with water in a 1:1 ratio to give a solution containing 20% SIDS (sodium dodecyl sulfate) at the final concentration. The optical density at 590 nm was measured using a microplate reader (FIGS. 1a to 1d). Based on the measured values, the cytotoxicity (IC50) against A549 was calculated, and the results are disclosed in Table 1 together with the structural formulae.

[1] = Method 2 (marked *): 3.125-50 μM

Row | Compound | pIC50 (Method 1: 12.5-200 μM) | pIC50 [1]
1 | CC1(C)Oc2cc3oc(=O)ccc3cc2C[C@@H]1OC(=O)/C=C/c1ccccn1 [Example 3, (S,E)-2,2-dimethyl-8-oxo-2,3,4,8-tetrahydropyrano[3,2-g]chromen-3-yl 3-(pyridin-2-yl)acrylate] | 3.95 | –
2 | CN(C)c1ccc(CC(=O)O[C@H]2Cc3cc4ccc(=O)oc4cc3OC2(C)C)cc1 [Example 29, (S)-2,2-dimethyl-8-oxo-2,3,4,8-tetrahydropyrano[3,2-g]chromen-3-yl 4-(dimethylamino)phenylacetate] | – | 4.28
3 | CC1(C)Oc2cc3oc(=O)ccc3cc2C[C@H]1OC(=O)/C=C/c1ccc(C(F)(F)F)cc1 [Example 18, (R,E)-2,2-dimethyl-8-oxo-2,3,4,8-tetrahydropyrano[3,2-g]chromen-3-yl 3-(4-(trifluoromethyl)phenyl)acrylate] | 3.77 | –
4 | C/C(=C\c1ccccc1)C(=O)O[C@H]1Cc2cc3ccc(=O)oc3cc2OC1(C)C [Example 4, (S,E)-2,2-dimethyl-8-oxo-2,3,4,8-tetrahydropyrano[3,2-g]chromen-3-yl 2-methyl-3-phenylacrylate] | 4.09 | –
5 | CC1(C)Oc2cc3oc(=O)ccc3cc2C[C@@H]1OC(=O)CCc1ccoc1 [Example 28, (S)-2,2-dimethyl-8-oxo-2,3,4,8-tetrahydropyrano[3,2-g]chromen-3-yl 3-(furan-3-yl)propanoate] | – | 4.02
6 | CC1(C)Oc2cc3oc(=O)ccc3cc2C[C@@H]1OC(=O)/C=C/c1ccc(C(F)(F)F)cc1 [Example 9, (S,E)-2,2-dimethyl-8-oxo-2,3,4,8-tetrahydropyrano[3,2-g]chromen-3-yl 3-(4-(trifluoromethyl)phenyl)acrylate] | < 3.70 | –
7 | CC1(C)Oc2cc3oc(=O)ccc3cc2[C@@H](NC(=O)/C=C/c2ccoc2)[C@@H]1O [Example 23, (E)-3-(furan-3-yl)-N-((3S,4R)-3-hydroxy-2,2-dimethyl-8-oxo-2,3,4,8-tetrahydropyrano[3,2-g]chromen-4-yl)acrylamide] | < 3.70 | –
8 | CC1(C)Oc2cc3oc(=O)ccc3cc2C[C@H]1OC(=O)CCc1ccc2c(c1)OCO2 [Example 15, (R)-2,2-dimethyl-8-oxo-2,3,4,8-tetrahydropyrano[3,2-g]chromen-3-yl 3-(benzo[d][1,3]dioxol-5-yl)propanoate] | < 3.70 | –
9 | CN(C)c1ccc(/C=C/C(=O)O[C@H]2Cc3cc4ccc(=O)oc4cc3OC2(C)C)cc1 [Example 30, (S,E)-2,2-dimethyl-8-oxo-2,3,4,8-tetrahydropyrano[3,2-g]chromen-3-yl 3-(4-(dimethylamino)phenyl)acrylate] | – | 3.82
10 | CN(C)S(=O)(=O)c1ccc(/C=C/C(=O)N[C@@H]2c3cc4ccc(=O)oc4cc3OC(C)(C)[C@H]2O)cc1 [Example 26, (E)-3-(4-(N,N-dimethylsulfamoyl)phenyl)-N-((3S,4R)-3-hydroxy-2,2-dimethyl-8-oxo-2,3,4,8-tetrahydropyrano[3,2-g]chromen-4-yl)acrylamide] | < 3.70 | –
11 | CC1(C)Oc2cc3oc(=O)ccc3cc2C[C@@H]1OC(=O)CCc1ccc2c(c1)OCO2 [Example 6, (S)-2,2-dimethyl-8-oxo-2,3,4,8-tetrahydropyrano[3,2-g]chromen-3-yl 3-(benzo[d][1,3]dioxol-5-yl)propanoate] | ≤ 3.66 | –
12 | CC1(C)Oc2cc3oc(=O)ccc3cc2C[C@H]1OC(=O)CCn1ccnc1 [Example 10, (R)-2,2-dimethyl-8-oxo-2,3,4,8-tetrahydropyrano[3,2-g]chromen-3-yl 3-(1H-imidazol-1-yl)propanoate] | < 3.70 | –
13 | CC1(C)Oc2cc3oc(=O)ccc3cc2C[C@@H]1OC(=O)/C=C/c1ccc2c(c1)OCO2 [Example 7, (S,E)-2,2-dimethyl-8-oxo-2,3,4,8-tetrahydropyrano[3,2-g]chromen-3-yl 3-(benzo[d][1,3]dioxol-5-yl)acrylate] | < 3.70 | –
14 | CC1(C)Oc2cc3oc(=O)ccc3cc2C[C@H]1OC(=O)/C=C/c1ccccn1 [Example 12, (R,E)-2,2-dimethyl-8-oxo-2,3,4,8-tetrahydropyrano[3,2-g]chromen-3-yl 3-(pyridin-2-yl)acrylate] | 3.74 | –
15 | CC1(C)Oc2cc3oc(=O)ccc3cc2C[C@H]1OC(=O)CCc1ccccn1 [Example 11, (R)-2,2-dimethyl-8-oxo-2,3,4,8-tetrahydropyrano[3,2-g]chromen-3-yl 3-(pyridin-2-yl)propanoate] | < 3.70 | –
16 | CN(C)S(=O)(=O)c1ccc(/C=C/C(=O)O[C@H]2Cc3cc4ccc(=O)oc4cc3OC2(C)C)cc1 [Example 8, (S,E)-2,2-dimethyl-8-oxo-2,3,4,8-tetrahydropyrano[3,2-g]chromen-3-yl 3-(4-(N,N-dimethylsulfamoyl)phenyl)acrylate] | < 3.70 | –
17 | CC1(C)Oc2cc3oc(=O)ccc3cc2C[C@H]1OC(=O)/C=C/c1ccoc1 [Example 14, (R,E)-2,2-dimethyl-8-oxo-2,3,4,8-tetrahydropyrano[3,2-g]chromen-3-yl 3-(furan-3-yl)acrylate] | 3.82 | –
18 | CC(C)=CC(=O)O[C@H]1Cc2cc3ccc(=O)oc3cc2OC1(C)C [Decursin, decursin] | 4.36 | 4.52
19 | CC1(C)Oc2cc3oc(=O)ccc3cc2[C@@H](NC(=O)CCc2ccccn2)[C@@H]1O [Example 20, N-((3S,4R)-3-hydroxy-2,2-dimethyl-8-oxo-2,3,4,8-tetrahydropyrano[3,2-g]chromen-4-yl)-3-(pyridin-2-yl)propanamide] | < 3.70 | –
20 | CC1(C)Oc2cc3oc(=O)ccc3cc2C[C@H]1OC(=O)/C=C/c1ccc2c(c1)OCO2 [Example 16, (R,E)-2,2-dimethyl-8-oxo-2,3,4,8-tetrahydropyrano[3,2-g]chromen-3-yl 3-(benzo[d][1,3]dioxol-5-yl)acrylate] | < 3.70 | –
21 | CC1(C)Oc2cc3oc(=O)ccc3cc2[C@@H](NC(=O)/C=C/c2ccc(C(F)(F)F)cc2)[C@@H]1O [Example 27, (E)-N-((3S,4R)-3-hydroxy-2,2-dimethyl-8-oxo-2,3,4,8-tetrahydropyrano[3,2-g]chromen-4-yl)-3-(4-(trifluoromethyl)phenyl)acrylamide] | 4.13 | –
22 | CC1(C)Oc2cc3oc(=O)ccc3cc2[C@@H](NC(=O)/C=C/c2ccc3c(c2)OCO3)[C@@H]1O [Example 25, (E)-3-(benzo[d][1,3]dioxol-5-yl)-N-((3S,4R)-3-hydroxy-2,2-dimethyl-8-oxo-2,3,4,8-tetrahydropyrano[3,2-g]chromen-4-yl)acrylamide] | 3.82 | –
23 | CC1(C)Oc2cc3oc(=O)ccc3cc2C[C@@H]1OC(=O)CCc1ccccn1 [Example 2, (S)-2,2-dimethyl-8-oxo-2,3,4,8-tetrahydropyrano[3,2-g]chromen-3-yl 3-(pyridin-2-yl)propanoate] | < 3.70 | –
24 | C/C(=C\c1ccccc1)C(=O)O[C@@H]1Cc2cc3ccc(=O)oc3cc2OC1(C)C [Example 13, (R,E)-2,2-dimethyl-8-oxo-2,3,4,8-tetrahydropyrano[3,2-g]chromen-3-yl 2-methyl-3-phenylacrylate] | 3.97 | –
25 | C/C(=C\c1ccccc1)C(=O)N[C@@H]1c2cc3ccc(=O)oc3cc2OC(C)(C)[C@H]1O [Example 22, (E)-N-((3S,4R)-3-hydroxy-2,2-dimethyl-8-oxo-2,3,4,8-tetrahydropyrano[3,2-g]chromen-4-yl)-2-methyl-3-phenylacrylamide] | < 3.70 | –
26 | CN(C)S(=O)(=O)c1ccc(/C=C/C(=O)O[C@@H]2Cc3cc4ccc(=O)oc4cc3OC2(C)C)cc1 [Example 17, (R,E)-2,2-dimethyl-8-oxo-2,3,4,8-tetrahydropyrano[3,2-g]chromen-3-yl 3-(4-(N,N-dimethylsulfamoyl)phenyl)acrylate] | < 3.70 | –
27 | CC1(C)Oc2cc3oc(=O)ccc3cc2[C@@H](NC(=O)CCc2ccc3c(c2)OCO3)[C@@H]1O [Example 24, 3-(benzo[d][1,3]dioxol-5-yl)-N-((3S,4R)-3-hydroxy-2,2-dimethyl-8-oxo-2,3,4,8-tetrahydropyrano[3,2-g]chromen-4-yl)propanamide] | < 3.70 | –
28 | CC1(C)Oc2cc3oc(=O)ccc3cc2[C@@H](NC(=O)/C=C/c2ccccn2)[C@@H]1O [Example 21, (E)-N-((3S,4R)-3-hydroxy-2,2-dimethyl-8-oxo-2,3,4,8-tetrahydropyrano[3,2-g]chromen-4-yl)-3-(pyridin-2-yl)acrylamide] | < 3.70 | –
29 | CC1(C)Oc2cc3oc(=O)ccc3cc2[C@@H](NC(=O)CCn2ccnc2)[C@@H]1O [Example 19, N-((3S,4R)-3-hydroxy-2,2-dimethyl-8-oxo-2,3,4,8-tetrahydropyrano[3,2-g]chromen-4-yl)-3-(1H-imidazol-1-yl)propanamide] | < 3.70 | –
